Legend:
[1] = system: MUC 5AC 5' regulatory region (M4-2 luciferase reporter gene construct) in HM3 cells; assay: Inhibition of smoke-induced luciferase activity in HM3 cells transfected with M4-2 reporter construct; format: cell-based, human
Source text: A DNA fragment extending from −3752 bp to +68 bp was cloned into the MluI/Smal site of the pGL3 vector (Promega). pGL3 contains a luciferase gene downstream from the Smal site. This construct, referred to as M4-2, was deposited with the American Type Culture Collection as ATCC designation 98701. M4-2 was co-transfected with pcDNA3, containing the neomycin resistance gene, into the epithelial cell line HM3. G418-selected colonies were pooled, expanded, and used in luciferase assays.
HM3 colon carcinoma cells (Kuan, et al. (1987) Cancer Res. 47:5715-5724) or NCIH292 lung carcinoma cells (Levine, et al. (1995) Am. J Respir. Disease 12:196-204) were transfected with the 4.0 Kb MUC 5AC reporter gene construct, M4-2, or the −614 construct from Example 2. Transfection was carried out essentially as described in Felgner et al. (1987), supra. In brief, 2 μl lipofectamine and 1 μg DNA were added to, approximately 5×10^6 cells in 100 μl of Optimen (Gibco) and incubated at room, temperature for about 30 minutes. The mixture was then diluted to 1 ml and added to one culture well of a 6 well plate. G418-selected colonies were pooled, expanded and used in luciferase assays.
Environmental tobacco smoke was used as a mucomone. Culture medium DME-F 12 (Dulbecco's Modified Eagle's:Haam's F12 at 1:1) was exposed to tobacco smoke at various concentrations, for 6 hours. Exposure of the medium was carried out in open culture dishes in an enclosed container into which tobacco smoke produced by burning cigarettes was introduced in a controlled manner. Smoke concentration was measured in units of total suspended particles/ml (TSP/ml). Transfected cells were transferred into the smoke-exposed medium (in 6-well plates, 5×10^5 cells per well) and incubated for various times. The cells were then harvested, lysed and the luciferase activity determined as described in Li et al. (1997).
Several possible inhibitors of mucomone-induced mucin production were tested for their effect on the smoke induced luciferase activity described in Example 3. Inhibitors tested included the inhibitors Genistein (Calbiochem), anti-MEK (PD98059; Alessi et al. 1995), PKC-I (Bisindolymaleimide) and PKA-l (KT 5720, Calbiochem). HM3 cells transfected with the 4.0 KB MUC 5AC construct, M4-2, were incubated in smoke-exposed medium as described in Example 3. The inhibitors were added to the cells at the concentrations indicated in Table 2 for various times before the cells were transferred to the smoke medium. Additional inhibitor was added to the smoke medium after the cells were transferred.

[2] = system: MUC 2 gene transcription in epithelial cells; conditions: epithelial cells pre-incubated with inhibitor; cited from earlier work

With CN(C)CCCn1cc(C2=C(c3c[nH]c4ccccc34)C(=O)NC2=O)c2ccccc21 [Bisindolymaleimide] the “relative luciferase activity (RLA) induced by smoke medium, with vs without inhibitor” value ([1]; Bisindolymaleimide 2.5 nM to 10 nM, added 1 hr before smoke medium) was “lower”.

In the case of O=c1c(-c2ccc(O)cc2)coc2cc(O)cc(O)c12 [Genistein], the “relative luciferase activity (RLA) induced by smoke medium, with vs without inhibitor” value ([1]; Genistein 30 μM, added 30 min-2 hr before smoke medium) is given as “lower” and the “effect of pre-incubation on the PA LPS-induced increase in MUC 2 transcription” value [2] is given as “abolished the increase in transcription”.

For CCCCCCOC(=O)[C@]1(O)C[C@@H]2O[C@@]1(C)n1c3ccccc3c3c4c(c5c6ccccc6n2c5c31)C(=O)NC4 [KT 5720], the “relative luciferase activity (RLA) induced by smoke medium, with vs without inhibitor” value ([1]; KT 5720 0.1 to 0.5 μM, added 15 min-1 hr before smoke medium) was “lower”.

For COc1cccc(-c2cc(=O)c3ccccc3o2)c1N [PD98059], the “relative luciferase activity (RLA) induced by smoke medium, with vs without inhibitor” value ([1]; PD98059 50-100 μM, added 1 hr before smoke medium) was “lower”.
